For the assay, the target named is T1, ΔF508-CFTR (Homo sapiens, UniProt P13569, DEL508-508).
T1 construct: expressed in transfected cells; host or cells: CFSMEo- (human CF submucosal gland epithelial cells, ΔF508/Q2X), transiently transfected by nucleofection
T1 sequence (P13569 with tags, fused parts or gaps DEL508-508): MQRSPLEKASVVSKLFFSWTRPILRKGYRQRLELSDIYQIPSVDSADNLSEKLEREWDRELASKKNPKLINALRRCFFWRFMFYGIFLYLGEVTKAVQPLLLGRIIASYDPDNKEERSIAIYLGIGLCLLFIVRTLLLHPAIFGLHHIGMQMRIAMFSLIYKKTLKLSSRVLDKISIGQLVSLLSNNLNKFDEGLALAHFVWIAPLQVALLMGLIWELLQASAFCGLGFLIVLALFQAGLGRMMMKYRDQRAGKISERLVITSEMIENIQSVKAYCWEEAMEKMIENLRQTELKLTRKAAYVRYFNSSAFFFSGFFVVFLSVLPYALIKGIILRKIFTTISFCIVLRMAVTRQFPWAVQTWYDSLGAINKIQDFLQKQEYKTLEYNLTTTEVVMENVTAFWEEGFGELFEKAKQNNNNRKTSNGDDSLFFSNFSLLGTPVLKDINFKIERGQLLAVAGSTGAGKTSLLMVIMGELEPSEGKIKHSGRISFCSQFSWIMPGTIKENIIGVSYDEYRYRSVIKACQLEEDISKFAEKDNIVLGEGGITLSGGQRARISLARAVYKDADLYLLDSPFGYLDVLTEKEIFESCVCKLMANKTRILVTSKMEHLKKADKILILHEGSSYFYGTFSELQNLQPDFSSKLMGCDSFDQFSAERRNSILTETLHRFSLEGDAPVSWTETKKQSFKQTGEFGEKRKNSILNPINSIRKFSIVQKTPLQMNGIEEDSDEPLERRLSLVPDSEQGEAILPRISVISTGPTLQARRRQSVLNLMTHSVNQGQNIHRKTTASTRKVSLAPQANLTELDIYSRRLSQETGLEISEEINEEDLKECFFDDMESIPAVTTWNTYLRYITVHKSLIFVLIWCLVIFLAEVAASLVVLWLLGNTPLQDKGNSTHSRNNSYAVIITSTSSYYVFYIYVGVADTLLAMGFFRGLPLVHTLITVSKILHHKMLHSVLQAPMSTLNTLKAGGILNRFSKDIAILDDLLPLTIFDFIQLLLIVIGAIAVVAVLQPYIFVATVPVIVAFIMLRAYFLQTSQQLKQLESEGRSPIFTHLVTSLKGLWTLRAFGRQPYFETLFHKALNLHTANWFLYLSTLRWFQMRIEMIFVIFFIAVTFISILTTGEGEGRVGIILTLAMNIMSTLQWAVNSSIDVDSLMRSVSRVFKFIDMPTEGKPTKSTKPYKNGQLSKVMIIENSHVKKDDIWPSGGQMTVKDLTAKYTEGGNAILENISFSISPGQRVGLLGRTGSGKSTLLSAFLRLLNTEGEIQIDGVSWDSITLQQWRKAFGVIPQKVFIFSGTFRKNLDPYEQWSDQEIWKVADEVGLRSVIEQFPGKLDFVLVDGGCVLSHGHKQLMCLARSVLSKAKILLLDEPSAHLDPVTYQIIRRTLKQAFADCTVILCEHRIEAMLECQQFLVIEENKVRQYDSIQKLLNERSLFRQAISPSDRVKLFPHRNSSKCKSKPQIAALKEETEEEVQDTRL
The experiment in a line: ΔF508-CFTR-HRP trafficking assay (cell surface expression of ΔF508-CFTR). In kind it is cell-based. Particulars: CFSMEo- cells transiently transfected with ΔF508-CFTR-HRP; test agent 3 μM, 48 h; HRP chemiluminescence. In short, it runs like this: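 Surface-expressed ΔF508-CFTR measured via extracellular HRP tag: cell-impermeable chemiluminescent substrate, 5 min, signal normalized to 0.3% DMSO vehicle.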
Turning to `C[C@H](Oc1cncc(-n2nc(C(F)(F)F)c3c2C(Nc2ccc(C(=O)O)cc2)CCC3)c1)c1ccc2c(c1)OC(F)(F)O2` (stereo partly drawn) [Example 69, 4-[[1-[5-[(1S)-1-(2,2-difluoro-1,3-benzodioxol-5-yl)ethoxy]-3-pyridyl]-3-(trifluoromethyl)-4,5,6,7-tetrahydroindazol-7-yl]amino]benzoic acid], the “RLUs: ΔF508-CFTR-HRP trafficking data normalized to the vehicle treated control (0.3% DMSO)” value is reported as “B (RLU 3.5 μM-5.0 μM)”.

For `C[C@@H](Oc1cccc(-n2nc(C(F)(F)F)c3c2C(Oc2ccc(C(=O)O)cc2)CCC3)c1)c1cc2c(cc1F)OC(F)(F)O2` (stereo partly drawn) [Example 32, 4-[[1-[3-[(1R)-1-(2,2,6-trifluoro-1,3-benzodioxol-5-yl)ethoxy]phenyl]-3-(trifluoromethyl)-4,5,6,7-tetrahydroindazol-7-yl]oxy]benzoic acid], the “RLUs: ΔF508-CFTR-HRP trafficking data normalized to the vehicle treated control (0.3% DMSO)” value is “B (RLU 3.5 μM-5.0 μM)”.

In the case of `C[C@H](Oc1cc(-n2nc(C(F)(F)F)c3c2C(O[C@H]2CC[C@H](C(=O)O)CC2)CCC3)ccn1)c1ccc2c(c1)OC(F)(F)O2` (single isomer, unassigned) [Example 44], the “RLUs: ΔF508-CFTR-HRP trafficking data normalized to the vehicle treated control (0.3% DMSO)” value is reported as “A (RLU 5.0 μM-10 μM)”.

With `C[C@H](Oc1cc(-n2nc(C(F)(F)F)c3c2[C@H](Oc2ccc(C(=O)O)cc2)CCC3)ccn1)c1ccc2c(c1)OC(F)(F)O2` (single isomer, unassigned) [Example 23], the “RLUs: ΔF508-CFTR-HRP trafficking data normalized to the vehicle treated control (0.3% DMSO)” value is listed as “C (RLU 0.0 μM-3.5 μM)”.

Take `C[C@H](Oc1cccc(-n2nc(C(F)(F)F)c3c2[C@H](C(=O)N2CCC(C(=O)O)CC2)CCC3)c1)c1ccc2c(c1)OC(F)(F)O2` (single isomer, unassigned) [120 (P2)]: the “RLUs: ΔF508-CFTR-HRP trafficking data normalized to the vehicle treated control (0.3% DMSO)” value is on record as “C (RLU 0.0 μM-3.5 μM)”.

Regarding `C[C@H](Nc1nc(-n2nc(C(F)(F)F)c3c2[C@H](OC24CC(C(=O)O)(C2)C4)CCC3)ccc1F)c1ccc2c(c1)OC(F)(F)O2` (single isomer, unassigned) [101 (P2)], the “RLUs: ΔF508-CFTR-HRP trafficking data normalized to the vehicle treated control (0.3% DMSO)” value is on record as “C (RLU 0.0 μM-3.5 μM)”.

Regarding `C[C@H](Oc1cc(-n2nc(C(F)(F)F)c3c2[C@@H](Oc2ccc(C(=O)O)cc2)CCC3)ccc1F)c1ccc2c(c1)OC(F)(F)O2` (single isomer, unassigned) [Example 36], the “RLUs: ΔF508-CFTR-HRP trafficking data normalized to the vehicle treated control (0.3% DMSO)” value is “C (RLU 0.0 μM-3.5 μM)”.

For `C[C@H](Oc1cncc(-n2nc(C(F)(F)F)c3c2N(C(=O)c2ccc(C(=O)O)cc2)CCC3)c1)c1ccc2c(c1)OC(F)(F)O2` (single isomer, unassigned) [Example 16], the “RLUs: ΔF508-CFTR-HRP trafficking data normalized to the vehicle treated control (0.3% DMSO)” value was “C (RLU 0.0 μM-3.5 μM)”.

In the case of `O=C(O)c1ccc(OC2CCCc3c(C(F)(F)F)nn(-c4cccc(OCc5ccc6c(c5)OC(F)(F)O6)c4)c32)cc1` (stereo not shown) [Example 20, 4-[[1-[3-[(2,2-difluoro-1,3-benzodioxol-5-yl)methoxy]phenyl]-3-(trifluoromethyl)-4,5,6,7-tetrahydroindazol-7-yl]oxy]benzoic acid], the “RLUs: ΔF508-CFTR-HRP trafficking data normalized to the vehicle treated control (0.3% DMSO)” value is listed as “B (RLU 3.5 μM-5.0 μM)”.

In the case of `C[C@H](Oc1cncc(-n2nc(C(F)(F)F)c3c2N(C[C@H]2CC[C@H](C(=O)O)CC2)CCC3)c1)c1ccc2c(c1)OC(F)(F)O2` [Example 13, Trans-4-[[1-[5-[(1S)-1-(2,2-difluoro-1,3-benzodioxol-5-yl)ethoxy]-3-pyridyl]-3-(trifluoromethyl)-5,6-dihydro-4H-pyrazolo[3,4-b]pyridine-7-yl]methyl]cyclohexanecarboxylic acid], the “RLUs: ΔF508-CFTR-HRP trafficking data normalized to the vehicle treated control (0.3% DMSO)” value is recorded as “B (RLU 3.5 μM-5.0 μM)”.

On to `C[C@@H](Oc1cc(-n2nc(C(F)(F)F)c3c2N(CC24CC(C(=O)O)(C2)C4)CCC3)cnn1)c1ccc2c(c1)OC(F)(F)O2` (single isomer, unassigned) [Example 5], for which the “RLUs: ΔF508-CFTR-HRP trafficking data normalized to the vehicle treated control (0.3% DMSO)” value is “A (RLU 5.0 μM-10 μM)”.

For the compound `C[C@H](Oc1nc(-n2nc(C(F)(F)F)c3c2[C@H](O[C@H]2C[C@H](C(=O)O)C2)CCC3)ccc1F)c1cc2c(cc1F)OC(F)(F)O2` (single isomer, unassigned) [84 (P2)], the “RLUs: ΔF508-CFTR-HRP trafficking data normalized to the vehicle treated control (0.3% DMSO)” value was “C (RLU 0.0 μM-3.5 μM)”.

Regarding `C[C@H](Oc1cc(-n2nc(C(F)(F)F)c3c2[C@@H](CN2CCC(C(=O)O)CC2)CCC3)ccn1)c1ccc2c(c1)OC(F)(F)O2` (single isomer, unassigned) [125 (P1)], the “RLUs: ΔF508-CFTR-HRP trafficking data normalized to the vehicle treated control (0.3% DMSO)” value is listed as “A (RLU 5.0 μM-10 μM)”.

As to `C[C@H](Oc1cc(-n2nc(C(F)(F)F)c3c2[C@H](CN2CCC(C(=O)O)CC2)CCC3)ccn1)c1ccc2c(c1)OC(F)(F)O2` (single isomer, unassigned) [125 (P2)], the “RLUs: ΔF508-CFTR-HRP trafficking data normalized to the vehicle treated control (0.3% DMSO)” value was “A (RLU 5.0 μM-10 μM)”.

In the case of `C[C@H](Nc1cccc(-n2nc(C(F)(F)F)c3c2[C@@H](OC24CC(C(=O)O)(C2)C4)CCC3)n1)c1ccc2c(c1)OC(F)(F)O2` (single isomer, unassigned) [100 (P1)], the “RLUs: ΔF508-CFTR-HRP trafficking data normalized to the vehicle treated control (0.3% DMSO)” value is listed as “A (RLU 5.0 μM-10 μM)”.

In the case of `C[C@H](Oc1cc(-n2nc(C#N)c3c2[C@@H](OC24CC(C(=O)O)(C2)C4)CCC3)ccc1F)c1ccc2c(c1)OC(F)(F)O2` (single isomer, unassigned) [105 (P1)], the “RLUs: ΔF508-CFTR-HRP trafficking data normalized to the vehicle treated control (0.3% DMSO)” value was “B (RLU 3.5 μM-5.0 μM)”.

With `C[C@H](Oc1cc(-n2nc(C(F)(F)F)c3c2[C@@H](O[C@H]2CC[C@H](C(=O)O)CC2)CCC3)cnc1F)c1ccc2c(c1)OC(F)(F)O2` (single isomer, unassigned) [79 (P1)], the “RLUs: ΔF508-CFTR-HRP trafficking data normalized to the vehicle treated control (0.3% DMSO)” value is “B (RLU 3.5 μM-5.0 μM)”.

On to `C[C@H](Oc1cc(-n2nc(C(F)(F)F)c3c2[C@@H](Oc2ccc(C(=O)O)cc2)CCC3)ccc1F)c1cc2c(cc1F)OC(F)(F)O2` (single isomer, unassigned) [Example 36j], for which the “RLUs: ΔF508-CFTR-HRP trafficking data normalized to the vehicle treated control (0.3% DMSO)” value is reported as “C (RLU 0.0 μM-3.5 μM)”.

`C[C@H](Oc1cccc(-n2nc(C(F)(F)F)c3c2[C@@H](O[C@H]2C[C@H](C(=O)O)C2)CCC3)n1)c1cc2c(cc1F)OC(F)(F)O2` (single isomer, unassigned) [83 (P1)]: the “RLUs: ΔF508-CFTR-HRP trafficking data normalized to the vehicle treated control (0.3% DMSO)” value is given as “B (RLU 3.5 μM-5.0 μM)”.

On to `C[C@H](Oc1cc(-n2nc(C(F)(F)F)c3c2[C@@H](Oc2ccc(C(=O)O)cc2)CCC3)cnc1F)c1cc2c(cc1F)OC(F)(F)O2` (single isomer, unassigned) [Example 36d], for which the “RLUs: ΔF508-CFTR-HRP trafficking data normalized to the vehicle treated control (0.3% DMSO)” value was “B (RLU 3.5 μM-5.0 μM)”.

Turning to `C[C@H](Nc1cc(-n2nc(C#N)c3c2[C@H](OC24CC(C(=O)O)(C2)C4)CCC3)ccc1F)c1ccc2c(c1)OC(F)(F)O2` (single isomer, unassigned) [106 (P2)], the “RLUs: ΔF508-CFTR-HRP trafficking data normalized to the vehicle treated control (0.3% DMSO)” value is “C (RLU 0.0 μM-3.5 μM)”.

As for `C[C@H](Nc1cc(-n2nc(C(F)(F)F)c3c2[C@@H](OC24CC(C(=O)O)(C2)C4)CCC3)ccc1F)c1cc2c(cc1F)OC(F)(F)O2` (single isomer, unassigned) [96 (P1)], the “RLUs: ΔF508-CFTR-HRP trafficking data normalized to the vehicle treated control (0.3% DMSO)” value was “B (RLU 3.5 μM-5.0 μM)”.
